Experiment [1] relates to S. aureus 849 (ATCC 25923). Nature of the experiment: Kirby-Bauer agar disk diffusion. The settings on record: for S. aureus (Inhibition), median zone of inhibition: S. Aureaus strain 849, c = partial inhibition within this diameter; for zone of growth inhibition, average diameter: S. aureus 849 (ATCC 25923), 20 μg on 6 mm disk, 24 h at 37° C., triplicate. (In general: Agar diffusion results depend on both activity and mobility in agar.)

In experiment [2] the test system is 10 strains of MRSA (652-659, 919-920). Nature of the experiment: Kirby-Bauer zones of inhibition, 10 strains of MRSA. The settings on record: for MRSA (inhibition), median diameter of zone of inhibition: median of 10 strains of MRSA (652-659, 919-920), c = partial inhibition within this diameter.
A further experiment has as its system MRSA USF656. Nature of the experiment: Kirby-Bauer agar disk diffusion. Particulars: 20 μg on 6 mm disk, 24 h at 37° C., triplicate.
Another experiment relates to MRSA USF659. Nature of the experiment: Kirby-Bauer agar disk diffusion. Particulars: 20 μg on 6 mm disk, 24 h at 37° C., triplicate.
Another experiment deals with MRSA USF652. Nature of the experiment: Kirby-Bauer agar disk diffusion. The settings on record: 20 μg on 6 mm disk, 24 h at 37° C., triplicate.
The next experiment relates to MRSA USF658. Nature of the experiment: Kirby-Bauer agar disk diffusion. Particulars: 20 μg on 6 mm disk, 24 h at 37° C., triplicate.
For another experiment, the system named is MRSA USF657. Nature of the experiment: Kirby-Bauer agar disk diffusion. Particulars: 20 μg on 6 mm disk, 24 h at 37° C., triplicate.
The next experiment relates to MRSA USF654. Nature of the experiment: Kirby-Bauer agar disk diffusion. The settings on record: 20 μg on 6 mm disk, 24 h at 37° C., triplicate.
Another experiment concerns MRSA USF919 (ATCC 43300). Nature of the experiment: Kirby-Bauer agar disk diffusion. Particulars: 20 μg on 6 mm disk, 24 h at 37° C., triplicate.
For the next experiment, the system named is MRSA USF655. Nature of the experiment: Kirby-Bauer agar disk diffusion. Particulars: 20 μg on 6 mm disk, 24 h at 37° C., triplicate.
In a further experiment the test system is MRSA USF653. Nature of the experiment: Kirby-Bauer agar disk diffusion. The settings on record: 20 μg on 6 mm disk, 24 h at 37° C., triplicate.
Another experiment deals with MRSA USF920 (ATCC 33591). Nature of the experiment: Kirby-Bauer agar disk diffusion. The settings on record: 20 μg on 6 mm disk, 24 h at 37° C., triplicate.
The subject of the next experiment is B. globigii. Nature of the experiment: Kirby-Bauer agar disk diffusion. It is filed as cell-based. The settings on record: 20 μg on 6 mm disk, 24 h at 37° C., triplicate.
The subject of the next experiment is B. cereus. Nature of the experiment: Kirby-Bauer agar disk diffusion. Particulars: 20 μg on 6 mm disk, 24 h at 37° C., triplicate. It is filed as cell-based.
A further experiment deals with S. aureus. Nature of the experiment: Broth MIC. It is filed as cell-based, Staphylococcus aureus.
For the next experiment, the system named is B. subtilus. Nature of the experiment: Kirby-Bauer agar disk diffusion. The class given is cell-based. Particulars: 20 μg on 6 mm disk, 24 h at 37° C., triplicate.
A further experiment deals with MRSA. Nature of the experiment: Broth MIC. It is filed as cell-based, Staphylococcus aureus.
In the next experiment the test system is B. thurigensis. Nature of the experiment: Kirby-Bauer agar disk diffusion. The class given is cell-based. Particulars: 20 μg on 6 mm disk, 24 h at 37° C., triplicate.
For another experiment, the system named is B. megaterium. Nature of the experiment: Kirby-Bauer agar disk diffusion. The class given is cell-based. Particulars: 20 μg on 6 mm disk, 24 h at 37° C., triplicate.
The subject of another experiment is B. coagulans. Nature of the experiment: Kirby-Bauer agar disk diffusion. The class given is cell-based. Particulars: 20 μg on 6 mm disk, 24 h at 37° C., triplicate.
Experiment [3] relates to Bacillus anthracis (Sterne strain). It is filed as cell-based. Particulars: B. anthracis (Sterne strain); 20 μg on 6 mm disk; 24 h at 37° C.; triplicate.

Marks after values point to notes of the source that are not given here.

Consider `CSN1C(=O)OC[C@@H]1c1ccccc1` [oxazolidinone 6, 4S-(+)-N-methylthio-4-phenyl-2-oxazolidinone], for which, in experiment [1], the “S. aureus (Inhibition), median zone of inhibition” value (“S. aureus (Inhibition)” below) was 30 mm. In addition, in experiment [2], the “MRSA (inhibition), median diameter of zone of inhibition” value (“MRSA (inhibition), median diameter” below) turned out to be 29 mm.

Take `CCC(C)SN1CC(CCl)OC1=O` (stereo not drawn) [compound 5]: the “zone of growth inhibition, average diameter” value (shortened to “zone of growth inhibition”) with MRSA USF656 was determined as 20 mm; in the experiment on MRSA USF659, 20 mm; in the experiment on MRSA USF652, 19 mm; in [1], 19 mm; in the experiment on MRSA USF658, 21 mm; in the experiment on MRSA USF657, 22 mm. For the same compound, the “zone of growth inhibition” value came to 22 mm in the experiment with MRSA USF654; 19 mm in the experiment on MRSA USF919 (ATCC 43300); 22 mm with MRSA USF655; 20 mm in the experiment on MRSA USF653; 19 mm in the experiment on MRSA USF920 (ATCC 33591).

As to `CSN1C(=O)OC[C@H]1C(C)C` [oxazolidinone 9, 4R-(+)-N-methylthio-4-isopropyl-2-oxazolidinone], the “S. aureus (Inhibition)” value in experiment [1] is reported as 21^c mm. Further, in experiment [2], the “MRSA (inhibition), median diameter” value is 19^c mm.

Take `CSN1C(=O)OC[C@@H]1C(C)C` [oxazolidinone 8]: the “S. aureus (Inhibition)” value in [1] is 20^c mm. Further, the “MRSA (inhibition), median diameter” value in [2] is recorded as 16^c mm.

In the case of `COC1C(=O)N(SC)C1c1ccccc1` (racemic) [Lac, reference compound], the “zone of growth inhibition” value stood at 28 mm with MRSA USF656; 24 mm in the experiment on MRSA USF659; 30 mm with MRSA USF652; 25 mm in [1]; 26 mm with MRSA USF658; 27 mm with MRSA USF657. For the same compound, the “zone of growth inhibition” value in the experiment with MRSA USF654 came to 26 mm; in the experiment on MRSA USF655, 25 mm; in the experiment with MRSA USF653, 30 mm.

As to `CSN1C(=O)OC[C@H]1c1ccccc1` [oxazolidinone 7, 4R-(−)-N-methylthio-4-phenyl-2-oxazolidinone], the “S. aureus (Inhibition)” value in experiment [1] turned out to be 29 mm. The “MRSA (inhibition), median diameter” value in experiment [2] was 28 mm.

For the compound `CSN1C(=O)OC[C@@H]1C(C)C` [compound 8], the “zone of growth inhibition” value in the experiment on B. globigii was found to be 15 mm; with MRSA USF656, 22 mm; in the experiment on MRSA USF659, 22 mm; in the experiment on B. cereus, 22 mm; in the experiment with MRSA USF652, 19 mm; in experiment [1], 20 mm. The “zone of growth inhibition” value in the experiment with MRSA USF658 turned out to be 16 mm; with B. subtilus it was 17 mm; with MRSA USF657, 22 mm; in the experiment on B. thurigensis, 16 mm; with MRSA USF654, 23 mm; with B. megaterium, 18 mm. The “zone of growth inhibition” value in the experiment with MRSA USF919 (ATCC 43300) is on record as 21 mm; in the experiment with MRSA USF655 it was 22 mm; with MRSA USF653 it was 27 mm; with B. coagulans, 17 mm; with MRSA USF920 (ATCC 33591), 18 mm; in [3] it was 23 mm. Also, the “broth MIC value” in the experiment with S. aureus and with MRSA was 16 µg/mL in each case.

Regarding `CSN1C(=O)OC[C@H]1c1ccccc1` [compound 7], the “zone of growth inhibition” value with B. globigii is 17 mm; with MRSA USF656 it was 28 mm; in the experiment with MRSA USF659, 26 mm; in the experiment with B. cereus it was 23 mm; in the experiment on MRSA USF652, 30 mm; in [1] it was 29 mm. Moreover, the “zone of growth inhibition” value in the experiment on MRSA USF658 came out at 27 mm; in the experiment with B. subtilus, 19 mm; with MRSA USF657, 27 mm; in the experiment on B. thurigensis, 15 mm; in the experiment with MRSA USF654, 26 mm; in the experiment on B. megaterium, 20 mm. In addition, the “zone of growth inhibition” value was found to be 28 mm with MRSA USF919 (ATCC 43300); 28 mm in the experiment on MRSA USF655; 30 mm with MRSA USF653; 17 mm in the experiment with B. coagulans; 28 mm with MRSA USF920 (ATCC 33591); 23 mm in experiment [3]. For the same compound, the “broth MIC value” with S. aureus and in the experiment with MRSA was 8 µg/mL in each case.

Consider `CSN1C(=O)OC[C@H]1C(C)C` [compound 9], for which the “zone of growth inhibition” value in the experiment on B. globigii is listed as 17 mm; in the experiment with MRSA USF656, 20 mm; in the experiment with MRSA USF659, 22 mm; in the experiment with B. cereus it was 15 mm; in the experiment on MRSA USF652 it was 12 mm; in experiment [1], 21 mm. The “zone of growth inhibition” value worked out at 19 mm with MRSA USF658; 19 mm with B. subtilus; 19 mm with MRSA USF657; 0 mm in the experiment with B. thurigensis; 20 mm in the experiment on MRSA USF654; 10 mm in the experiment with B. megaterium. The “zone of growth inhibition” value in the experiment with MRSA USF919 (ATCC 43300) stood at 13 mm; with MRSA USF655, 18 mm; with MRSA USF653, 25 mm; in the experiment with B. coagulans it was 0 mm; in the experiment on MRSA USF920 (ATCC 33591), 15 mm; in [3], 15 mm. Further, in experiment [2] (Kirby-Bauer, anti-MRSA, compared with S-stereoisomer 8), the “clarity of growth inhibition zones” value is listed as “incomplete growth inhibition”.

For `CSN1C(=O)OC[C@@H]1c1ccccc1` [compound 6], the “zone of growth inhibition” value came out at 15 mm in the experiment on B. globigii; 31 mm in the experiment on MRSA USF656; 26 mm with MRSA USF659; 24 mm in the experiment with B. cereus; 30 mm in the experiment on MRSA USF652; 30 mm in [1]. Besides, the “zone of growth inhibition” value with MRSA USF658 is listed as 29 mm; in the experiment with B. subtilus, 19 mm; in the experiment with MRSA USF657, 29 mm; with B. thurigensis it was 17 mm; in the experiment with MRSA USF654 it was 29 mm; in the experiment on B. megaterium, 18 mm. Besides, the “zone of growth inhibition” value with MRSA USF919 (ATCC 43300) worked out at 30 mm; with MRSA USF655, 29 mm; in the experiment with MRSA USF653 it was 31 mm; in the experiment with B. coagulans it was 17 mm; in the experiment on MRSA USF920 (ATCC 33591) it was 28 mm; in [3] it was 23 mm.

Turning to `CC1(C)S[C@@H]2[C@H](NC(=O)Cc3ccccc3)C(=O)N2[C@H]1C(=O)O` [Pen G, penicillin G, reference compound], the “zone of growth inhibition” value in the experiment with MRSA USF656 came to 12 mm; in the experiment on MRSA USF659 it was 16 mm; in the experiment with MRSA USF652, 8 mm; in experiment [1] it was 33 mm; with MRSA USF658, 19 mm; in the experiment with MRSA USF657, 12 mm. The “zone of growth inhibition” value with MRSA USF654 is 10 mm; in the experiment with MRSA USF655, 14 mm; with MRSA USF653, 15 mm.

Source of the values: patent US8703963B2, “Derivative N-thiolated 2-oxazolidinone antibiotics” (University of South Florida, priority 2005, dated 2014).
